A short description of series [1]: Log P by HPLC on reversed phase columns (EEC directive 79/831 Annex V.A8). The series is classed as physicochemical. The conditions noted are these: method [a]: LC-UV, acidic range, 0.1% formic acid in water and acetonitrile; for chromatographic logP: reversed phase HPLC columns. As for the experimental part: Log P values: Measurement of Log P values was performed according to EEC directive 79/831 Annex V.A8 by HPLC (High Performance Liquid Chromatography) on reversed phase columns with the following methods: • ^[a] Log P value is determined by measurement of LC-UV, in an acidic range, with 0.1% formic acid in water and acetonitrile as eluent (linear gradient from 10% acetonitrile to 95% acetonitrile). • ^[b] Log P value is determined by measurement of LC-UV, in a neutral range, with 0.001 molar ammonium acetate solution in water and acetonitrile as eluent (linear gradient from 10% acetonitrile to 95% acetonitrile). • ^[c] Log P value is determined by measurement of LC-UV, in an acidic range, with 0.1% phosphoric acid and acetonitrile as eluent (linear gradient from 10% acetonitrile to 95% acetonitrile). If more than one Log P value is available within the same method, all the values are given and separated by “+”. Calibration was done with straight-chain alkan2-ones (with 3 to 16 carbon atoms) with known Log P values (measurement of Log P values using retention times with linear interpolation between successive alkanones). Lambda-max-values were determined using UV-spectra from 200 nm to 400 nm and the peak values of the chromatographic signals.

In the next series the test system is Puccinia recondita. Put plainly: In vivo preventive test on Puccinia recondita (brown rust on wheat). Particulars: 264 h, 500 ppm of active ingredient, preventive spray, evaluated 11 days after inoculation, read-out: efficacy. As for the experimental part:
(§1) Example A: In Vivo Preventive Test on Puccinia recondita (Brown Rust on Wheat) [table] The active ingredients were made soluble and homogenized in a mixture of dimethyl sulfoxide/acetone//Tween® 80 and then diluted in water to the desired concentration. Young plants of wheat were treated by spraying the active ingredient prepared as described above. Control plants were treated only with an aqueous solution of acetone/dimethyl sulfoxide/Tween® 80. After 24 hours, the plants were contaminated by spraying the leaves with an aqueous suspension of Puccinia recondita spores. The contaminated wheat plants were incubated for 24 hours at 20° C. and at 100% relative humidity and then for 10 days at 20° C. and at 70-80% relative humidity. The test was evaluated 11 days after the inoculation. 0% means an efficacy which corresponds to that of the control plants while an efficacy of 100% means that no disease was observed.

A further series concerns Septoria tritici. Put plainly: In vivo preventive test on Septoria tritici (leaf spot on wheat). The conditions noted are these: Zymoseptoria tritici, 576 h, 500 ppm of active ingredient, preventive spray, evaluated 24 days after inoculation, read-out: efficacy. As for the experimental part:
Example B: In Vivo Preventive Test on Septoria tritici (Leaf Spot on Wheat) [table] The active ingredients were made soluble and homogenized in a mixture of dimethyl sulfoxide/acetone//Tween® 80 and then diluted in water to the desired concentration. Young plants of wheat were treated by spraying the active ingredient prepared as described above. Control plants were treated only with an aqueous solution of acetone/dimethyl sulfoxide/Tween® 80. After 24 hours, the plants were contaminated by spraying the leaves with an aqueous suspension of Septoria tritici spores. The contaminated wheat plants were incubated for 72 hours at 18° C. and at 100% relative humidity and then for 21 days at 20° C. and at 90% relative humidity. The test was evaluated 24 days after the inoculation. 0% means an efficacy which corresponds to that of the control plants while an efficacy of 100% means that no disease was observed.

For a further series, the system named is Sphaerotheca fuliginea. Briefly: In vivo preventive test on Sphaerotheca fuliginea (powdery mildew on cucurbits). Particulars: Podosphaera fuliginea, 360 h; 500 ppm of active ingredient; gherkin, preventive spray, evaluated 15 days after inoculation; read-out: efficacy. As for the experimental part:
Example C: In Vivo Preventive Test on Sphaerotheca fuliginea (Powdery Mildew on Cucurbits) [table] The active ingredients were made soluble and homogenized in a mixture of dimethyl sulfoxide/acetone//Tween® 80 and then diluted in water to the desired concentration. Young plants of gherkin were treated by spraying the active ingredient prepared as described above. Control plants were treated only with an aqueous solution of acetone/dimethyl sulfoxide/Tween® 80. After 24 hours, the plants were contaminated by spraying the leaves with an aqueous suspension of Sphaerotheca fuliginea spores. The contaminated gherkin plants were incubated for 72 hours at 18° C. and at 100% relative humidity and then for 12 days at 20° C. and at 70-80% relative humidity. The test was evaluated 15 days after the inoculation. 0% means an efficacy which corresponds to that of the control plants while an efficacy of 100% means that no disease was observed.

The subject of another series is Uromyces appendiculatus. Put plainly: In vivo preventive test on Uromyces appendiculatus (bean rust). Particulars: 264 h, 500 ppm of active ingredient, preventive spray, evaluated 11 days after inoculation, read-out: efficacy. On the procedure:
as §1, with “D:” for “A:”, “Uromyces appendiculatus (Bean Rust)” for “Puccinia recondita (Brown Rust on Wheat)”, “bean” for “wheat”, “Uromyces appendiculatus” for “Puccinia recondita”

Series [2] has as its system Blumeria graminis fsp. hordei. Briefly: In vivo preventive Blumeria test (barley). The conditions noted are these: 168 h, 500 ppm of active ingredient, preventive spray, evaluated 7 days after inoculation, read-out: efficacy. As for the experimental part:
Example E: In Vivo Preventive Blumeria Test (Barlev) [table] To produce a suitable preparation of active compound, 1 part by weight of active compound or active compound combination was mixed with the stated amounts of solvent and emulsifier, and the concentrate was diluted with water to the desired concentration. To test for preventive activity, young plants were sprayed with the preparation of active compound or active compound combination at the stated rate of application. After the spray coating had been dried, the plants were dusted with spores of Blumeria graminis fsp. hordei. The plants were placed in the greenhouse at a temperature of approximately 18° C. and a relative atmospheric humidity of approximately 80% to promote the development of mildew pustules. The test was evaluated 7 days after the inoculation. 0% means an efficacy which corresponds to that of the untreated control, while an efficacy of 100% means that no disease is observed.

This note sets out measurements from patent US20200017467A1, “NOVEL TRIAZOLE DERIVATIVES” (BAYER CROPSCIENCE AKTIENGESELLSCHAFT, priority 2017, published 2020).

For `CC(O)(Cn1cncn1)c1ccc(Oc2ccc(Cl)nc2)nc1Cl` (stereo not drawn) [I-03], the LogP in series [1] (compounds of formula (I)) is 2.04^[a].
The same measure, in the same setting: in the case of `OC(Cn1cncn1)c1cnc(Oc2ccc(C(F)(F)F)nc2)cc1C(F)(F)F` (stereo not drawn) [I-08] it was 2.35^[a].
For `OC(Cn1cncn1)c1ccc(Oc2ccc(Cl)nc2)nc1C(F)(F)F` (stereo not drawn) [I-10], the LogP in series [1] (compounds of formula (I)) was 2.07^[a].
Still for that read-out and setting: in the case of `OC(Cn1cncn1)c1ccc(Oc2ccc(Cl)nc2)nc1Cl` (stereo not drawn) [I-11] it was 1.79^[a].
Turning to `OC(Cn1cncn1)c1ccc(Oc2ccc(Br)nc2)nc1C(F)(F)F` (stereo not drawn) [I-12, 1-[6-[(6-bromo-3-pyridyl)oxy]-2-(trifluoromethyl)-3-pyridyl]-2-(1,2,4-triazol-1-yl)ethanol], the chromatographic logP (in general, a lipophilicity value derived from retention on a column) in series [1] (compounds of formula (I)) worked out at 2.03. Also, the pest or weed control at 500 ppm in the series on Puccinia recondita was 80 to 89%; in the series with Septoria tritici, 90 to 100%; with Sphaerotheca fuliginea, 90 to 100%; in the series on Uromyces appendiculatus it was 90 to 100%; in series [2] it was 90 to 100%.
In series [1] (compounds of formula (I)), `OC(Cn1cncn1)c1cnc(Oc2ccc(Cl)nc2)cc1C(F)(F)F` (stereo not drawn) [I-14, 1-[6-[(6-chloro-3-pyridyl)oxy]-4-(trifluoromethyl)-3-pyridyl]-2-(1,24-triazol-1-yl)ethanol] displayed a chromatographic logP of 1.99. Further, the pest or weed control at 500 ppm (with Puccinia recondita; with Septoria tritici; in the series with Sphaerotheca fuliginea; in the series with Uromyces appendiculatus; in series [2]) was 90 to 100% in each case.
In turn, `CC(=O)c1ccc(Oc2ccc(Br)nc2)nc1C(F)(F)F` [V-01, 1-[6-[(6-bromo-3-pyridyl)oxy]-2-(trifluoromethyl)-3-pyridyl]ethanone] had a chromatographic logP in series [1] (compounds of formula (V)) of 3.12.
On the same count and under the same terms, to `CC(=O)c1ccc(Oc2ccc(C(F)(F)F)nc2)nc1C(F)(F)F` [V-02, 1-[2-(trifluoromethyl)-6-[[6-(trifluoromethyl)-3-pyridyl]oxy]-3-pyridyl]ethanone] belongs 3.26.
Take `CC(=O)c1ccc(Oc2ccc(Cl)nc2)nc1Cl` [V-03]: the LogP in series [1] (compounds of formula (V)) is 2.66^[a].
On the same count and under the same terms, to `CC(=O)c1cnc(Oc2ccc(C(F)(F)F)nc2)cc1C(F)(F)F` [V-04] belongs 3.44^[a]; to `CC(=O)c1ccc(Oc2ccc(Cl)nc2)nc1C(F)(F)F` [V-05], 3.00^[a].
As to `CC(=O)c1cnc(Oc2ccc(Cl)nc2)cc1C(F)(F)F` [V-06, 1-[6-[(6-chloro-3-pyridyl)oxy]-4-(trifluoromethyl)-3-pyridyl]ethanone], the chromatographic logP in series [1] (compounds of formula (V)) is 3.
`CC(=O)c1cnc(Oc2ccc(Br)nc2)cc1C(F)(F)F` [V-07]: in series [1] (compounds of formula (V)), the LogP was 3.17^[a].
The same measure, in the same setting: to `CC(=O)c1ccc(Oc2ccc(F)nc2)nc1Cl` [V-08] belongs 2.39^[a]; to `CC(=O)c1ccc(Oc2ccc(C)nc2)nc1Cl` [V-09], 1.42^[a]; to `CC(=O)c1cnc(Oc2ccc(Cl)nc2)cc1Cl` [V-10], 2.59^[a].
Compound `O=C(CCl)c1ccc(Oc2ccc(Br)nc2)nc1C(F)(F)F` [VI-01, 1-[6-[(6-bromo-3-pyridyl)oxy]-2-(trifluoromethyl)-3-pyridyl]-2-chloro-ethanone] returned a chromatographic logP in series [1] (compounds of formula (VI)) of 3.44.
Same read-out and setting: to `O=C(CCl)c1ccc(Oc2ccc(C(F)(F)F)nc2)nc1C(F)(F)F` [VI-02, 2-chloro-1-[2-(trifluoromethyl)-6-[[6-(trifluoromethyl)-3-pyridyl]oxy]-3-pyridyl]ethanone] belongs 3.6.
In the case of `O=C(CCl)c1ccc(Oc2ccc(Cl)nc2)nc1Cl` [VI-03], the LogP in series [1] (compounds of formula (VI)) is 3.00^[a].
Still for that read-out and setting: in the case of `O=C(CCl)c1cnc(Oc2ccc(C(F)(F)F)nc2)cc1C(F)(F)F` [VI-04] it was 3.64^[a].
Take `O=C(CCl)c1ccc(Oc2ccc(Cl)nc2)nc1C(F)(F)F` [VI-05]: the LogP in series [1] (compounds of formula (VI)) was 3.27^[a].
For the compound `O=C(Cn1cncn1)c1ccc(Oc2ccc(Br)nc2)nc1C(F)(F)F` [VII-01, 1-[6-[(6-bromo-3-pyridyl)oxy]-2-(trifluoromethyl)-3-pyridyl]-2-(1,2,4-triazol-1-yl)ethanone], the chromatographic logP in series [1] (compounds of formula (VII)) is 2.23. Besides, the pest or weed control at 500 ppm with Puccinia recondita fell in the range of 80 to 89%; in the series with Septoria tritici it was 90 to 100%; with Sphaerotheca fuliginea it was 90 to 100%; in the series with Uromyces appendiculatus, 90 to 100%.
Consider `O=C(Cn1cncn1)c1ccc(Oc2ccc(C(F)(F)F)nc2)nc1C(F)(F)F` [VII-02, 2-(1,2,4-triazol-1-yl)-1-[2-(trifluoromethyl)-6-[[6-(trifluoromethyl)-3-pyridyl]oxy]-3-pyridyl]ethanone], for which, in series [1] (compounds of formula (VII)), the chromatographic logP is 2.43. In addition, the pest or weed control at 500 ppm with Puccinia recondita was 80 to 89%; in the series with Septoria tritici, 90 to 100%; in the series on Sphaerotheca fuliginea, 90 to 100%; in the series on Uromyces appendiculatus, 90 to 100%.
With `O=C(Cn1cncn1)c1ccc(Oc2ccc(Cl)nc2)nc1Cl` [VII-03], the LogP in series [1] (compounds of formula (VII)) is 1.99^[a].
On to `O=C(Cn1cncn1)c1cnc(Oc2ccc(C(F)(F)F)nc2)cc1C(F)(F)F` [VII-04], for which the LogP in series [1] (compounds of formula (VII)) was 2.66^[a].
The same measure, in the same setting: to `O=C(Cn1cncn1)c1ccc(Oc2ccc(Cl)nc2)nc1C(F)(F)F` [VII-05] belongs 2.23^[a].
For the compound `O=C(Cn1cncn1)c1cnc(Oc2ccc(Cl)nc2)cc1C(F)(F)F` [VII-06, 1-[6-[(6-chloro-3-pyridyl)oxy]-4-(trifluoromethyl)-3-pyridyl]-2-(1,2,4-triazol-1-yl)ethanone], the chromatographic logP in series [1] (compounds of formula (VII)) amounted to 2.21. Also, the pest or weed control at 500 ppm lay within 80 to 89% in the series on Septoria tritici and 90 to 100% in the series with Sphaerotheca fuliginea.
For the compound `O=C(Cn1cncn1)c1cnc(Oc2ccc(Br)nc2)cc1C(F)(F)F` [VII-07], the LogP in series [1] (compounds of formula (VII)) is 2.94^[a].
